Test results reported in ChEMBL document CHEMBL4476877, “Treatment of COPD, gastro-esophageal reflux disease (GERD), food allergies and other gastrointestinal conditions and disorders ameliorated by proper histamine management using a combination of histidine decarboxylase inhibitors, LRA drugs, anti-H1 and/or anti-H2 drugs” (2012).
Active and inactive are the calls of the source. The rule behind the calls is not given here.

Columns and labels:
[1] = target: T1, Histidine decarboxylase (Homo sapiens) (UniProt P19113); assay: Inhibition of recombinant human HDC (1 to 512 residues) expressed in Escherichia coli BL21 (DE3) pLysS assessed as reduction in [14C]CO2 production from L-[U-14C]histidine at 10 uM relative to untreated control
T1 sequence (whole entry): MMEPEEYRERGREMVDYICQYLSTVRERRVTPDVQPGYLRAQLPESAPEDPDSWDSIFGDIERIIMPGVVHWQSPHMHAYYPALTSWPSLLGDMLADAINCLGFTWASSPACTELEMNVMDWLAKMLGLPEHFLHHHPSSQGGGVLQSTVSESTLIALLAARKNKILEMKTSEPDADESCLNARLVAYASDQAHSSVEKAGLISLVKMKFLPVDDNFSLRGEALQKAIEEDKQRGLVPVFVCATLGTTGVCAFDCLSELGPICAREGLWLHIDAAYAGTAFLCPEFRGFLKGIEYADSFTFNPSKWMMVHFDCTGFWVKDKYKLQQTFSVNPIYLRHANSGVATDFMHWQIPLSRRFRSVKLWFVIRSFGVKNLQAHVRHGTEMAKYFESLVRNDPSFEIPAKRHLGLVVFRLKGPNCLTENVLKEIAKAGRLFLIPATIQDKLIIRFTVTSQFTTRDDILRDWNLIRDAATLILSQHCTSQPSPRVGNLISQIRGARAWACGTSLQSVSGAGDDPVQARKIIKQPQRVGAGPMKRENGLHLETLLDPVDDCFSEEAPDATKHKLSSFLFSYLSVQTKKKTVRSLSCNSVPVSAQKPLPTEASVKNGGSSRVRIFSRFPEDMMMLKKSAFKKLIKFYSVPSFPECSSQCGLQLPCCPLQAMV

[2] = system: Homo sapiens; assay: Improvement in disease symptoms in GERD patient assessed as improvement in global disease scores at 10 mg dosed daily; type: functional, organism-based
[3] = system: Homo sapiens; assay: Improvement in disease symptoms in GERD patient assessed as reduction in cough at 10 mg dosed daily; type: functional, organism-based
[4] = system: Homo sapiens; assay: Improvement in disease symptoms in GERD patient assessed as reduction in heartburns at 10 mg dosed daily; type: functional, organism-based
[5] = system: Homo sapiens; assay: Improvement in disease symptoms in GERD patient assessed as reduction in regurgitation at 10 mg dosed daily; type: functional, organism-based

SMILES	inhibition [1] [%]	Activity [2]	Activity [3]	Activity [4]	Activity [5]
CCOc1c(N)c2c(c(OCC)c1OCC)C(C1c3c(cc4c(c3OC)OCO4)CCN1C)OC2=O (racemic)	17.5	–	–	–	–
CCOC(=O)N1CCC(=C2c3ccc(Cl)cc3CCc3cccnc32)CC1	–	inactive	inactive	inactive	inactive
